Results as given in patent US6060481A, “Method for improving insulin sensitivity using an adenosine receptor antagonist” (priority 1999, dated 2000).
pKd: −log10 of the molar value.

Tests used:
[1] = target: T1, human A1 adenosine receptor (Homo sapiens, UniProt P30542); assay: Binding constants against cloned and expressed human adenosine receptor subtypes (A1); conditions: read-out: Binding constant (KD) A1
T1 construct: expressed in transfected cells
T1 sequence (P30542 1-326): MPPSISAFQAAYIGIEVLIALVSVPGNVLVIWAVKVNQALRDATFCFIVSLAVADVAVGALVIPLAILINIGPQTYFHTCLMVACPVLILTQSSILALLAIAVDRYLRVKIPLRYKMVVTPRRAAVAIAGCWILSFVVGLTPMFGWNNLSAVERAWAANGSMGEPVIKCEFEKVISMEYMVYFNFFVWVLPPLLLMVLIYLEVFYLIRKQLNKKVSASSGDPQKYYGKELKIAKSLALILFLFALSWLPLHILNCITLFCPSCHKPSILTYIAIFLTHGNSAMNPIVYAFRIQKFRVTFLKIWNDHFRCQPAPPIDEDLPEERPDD

[2] = Basal postabsorptive glucose kinetics; type: in vivo, Zucker rats; conditions: for Glucose Concentration / Glucose MCR / Glucose Ra: basal postabsorptive, treated 1 wk
Description: In this example, 6-8 week old lean and obese female animals were used. Each group received either vehicle or vehicle plus 1,3-dipropyl-8-(p-acrylic)phenylxanthine (BWA1433) (12 mg/kg every 12 h) for one week prior to the start of the experimental protocol, as described by Xu, et al., Am. […] The vehicle in this case was 10 mg/ml methyl cellulose in H2 O. The final dose of BWA1433 or vehicle was administered approximately 1 h prior to the start of the experimental protocol.
On the day prior to the start of the experimental protocol, animals were anesthetized with an intramuscular injection of ketamine and xylazine (90 and 9 mg/kg body weight, respectively), and sterile surgery was performed to implant catheters in the carotid artery and jugular vein according to the methods taught by Lang et al., Endocrinology, 130: 43-52 (1992). After surgery, animals were housed in individual cages and provided water ad libitum. Animals were fasted overnight.
The following morning, a primed, constant intravenous infusion of [3-^3 H]glucose (high-performance liquid chromatography purified; DuPont-New England Nuclear, Boston, Mass.) was initiated to determine basal glucose kinetics. A 7-μCi bolus injection of labeled glucose was administered followed by a continuous infusion at a rate of 0.083 μCi/min for the next 2 h. Arterial blood samples were collected at 100 and 120 min (0.3 ml each) after the start of the tracer infusion. Blood was collected in heparinized syringes, centrifuged, and the plasma glucose concentration and glucose specific activity were determined on each sample.
Rates of whole body glucose appearance (Ra) and disappearance (Rd) are calculated using the steady-state equations of Steele, Ann. […] The glucose metabolic clearance rate (MCR) is calculated by dividing the glucose Rd by the prevailing glucose concentration.

[3] = system: whole body glucose uptake; assay: Euglycemic hyperinsulinemic clamp, whole body glucose disposal and IMGU; type: in vivo, Zucker rats
Description: In this example, 6-8 week old lean and obese female animals were used. Each group received either vehicle or vehicle plus 1,3-dipropyl-8-(p-acrylic)phenylxanthine (BWA1433) (12 mg/kg every 12 h) for one week prior to the start of the experimental protocol, as described by Xu, et al., Am. J. Physiol., 274 (Endocrinol. Metab. 37): E271-E279 (1988). The vehicle in this case was 10 mg/ml methyl cellulose in H2 O. The final dose of BWA1433 or vehicle was administered approximately 1 h prior to the start of the experimental protocol.
After samples were obtained for basal metabolic determinations, a euglycemic hyperinsulinemic clamp was performed. Regular human insulin (Eli Lilly, Indianapolis, Ind.) was infused intravenously at a rate of 100 mU·min^-1 ·kg^-1 for 3 h. This infusion rate has been previously determined to result in steady-state plasma insulin concentrations of approximately 5,000 uU/ml, as reported in Lang, et al., Endocrinology, 130:43-52 (1996); Lang, Am. J. Physiol., 263 (Endocrinol. Metab. 26): E703-E711 (1992); and Lang, et al., Metabolism, 39:1096-1107 (1990). […] Tritiated glucose was not infused during the hyperinsulinemic clamp, because preliminary studies indicate that this insulin infusion rate completely suppresses endogenous glucose appearance in both obese and lean animals.
(§1) During the hyperinsulinemic clamp, blood glucose concentrations were determined at 10-min intervals using the YSI glucose analyzer (Yellow Springs, Ohio). Glucose specific activity was determined on neutralized supernatants of deproteinized plasma as taught by Lang, Am. J. Physiol, 263 (Endocrinol. Metab. 26): E703-D711 (1992). Tissue samples (600-900 mg wet wt) were immersed in ice-cold 0.5 N PCA, homogenized, and centrifuged. The concentration of phosphorylated 2-DG in tissues was calculated as the difference between total ^14 C-radioactivity of the neutral extract and the ^14 C-radioactivity remaining after Somogyi treatment as described in detail by Lang CH, Dobrescu C, and Meszaros K., Metabolism 39:1096-1107 (1990).
(§2) Rates of whole body glucose appearance (Ra) and disappearance (Rd) are calculated using the steady-state equations of Steele, Ann. NY Acad. Sci., 82:420-430 (1959). The glucose metabolic clearance rate (MCR) is calculated by dividing the glucose Rd by the prevailing glucose concentration. Since the prevailing insulin levels during the hyperinsulinemic clamp completely suppress endogenous glucose production, the rate of whole body glucose disposal equals the exogenous glucose infusion rate. The increment in insulin-stimulated glucose uptake (IMGU) for each animals is calculated by subtracting the basal endogenous glucose Ra from the measured rate of glucose disposal determined during the last 40 min of the clamp. In vivo glucose uptake for each tissue examined is calculated based on the accumulation of phosphorylated 2-DG by a respective tissue, the integrated 2-DG:glucose ratio in the plasma during the 40-min labeling period, and the lumped constant as described by Lang, Endocrinology, 128:645-653 (1991).

[4] = system: glucose uptake by individual tissues; assay: In vivo tissue glucose uptake with 14C 2-deoxyglucose during clamp; design: species or system Zucker rats; conditions: for Decrease in glucose uptake by adipose tissue: epididymal fat, normalized to wet weight
Description: In vivo glucose uptake by individual tissues was determined using [^14 C]-labeled 2-deoxyglucose (2-DG), as described previously in, for example, the Lang references cited above. Tissue-specific glucose uptake was determined between 140 and 180 min after the start of the euglycemic hyperinsulinemic clamp. A tracer amount of 2-DG (8 μCi/rat; Amersham, Arlington Heights, Ill.) was injected intravenously, and tissues obtained 40 min later. Prior to tissue collection, serial arterial blood samples (0.2 ml) were withdrawn into heparinized syringes, plasma deproteinized with perchloric acid and ^14 C-radioactivity determined. Thereafter, animals were anesthetized with sodium pentobarbital, exsanguinated, and selected tissues were excised to determine the intracellular accumulation of phosphorylated 2-DG.
as §1, §2

rat A3 receptor = target: T2, rat A3 receptor (Rattus norvegicus, UniProt P28647); conditions: rat versus human A3; cited from earlier work
T2 sequence (P28647 1-320): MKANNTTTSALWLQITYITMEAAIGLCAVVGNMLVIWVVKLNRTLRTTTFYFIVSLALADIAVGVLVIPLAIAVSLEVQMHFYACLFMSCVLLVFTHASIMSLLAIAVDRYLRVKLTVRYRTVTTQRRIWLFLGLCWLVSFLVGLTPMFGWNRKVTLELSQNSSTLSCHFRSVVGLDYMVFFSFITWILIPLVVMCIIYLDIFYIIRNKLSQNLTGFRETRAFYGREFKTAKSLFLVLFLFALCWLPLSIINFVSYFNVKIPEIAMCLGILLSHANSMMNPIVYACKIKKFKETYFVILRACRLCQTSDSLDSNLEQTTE

[5] = obese rats, one week treatment, clamp

CCCn1c(=O)c2[nH]c(-c3ccc(C=CC(=O)O)cc3)nc2n(CCC)c1=O [BWA1433, 1,3-dipropyl-8-(p-acrylic)phenylxanthine]
pKd [1]: 6.85 | Alterations in any parameter of glucose metabolism ([2]; basal conditions, either group (lean, obese)): did not produce detectable alterations | Glucose Concentration ([2]; lean rats): 5.1 ± 0.2 mM | Glucose MCR ([2]; lean rats): 7.1 ± 0.8 ml · min^-1 .multidot | Glucose Ra ([2]; lean rats): 36.8 ± 2.9 μmol^-1 · min .multid | Glucose Concentration ([2]; obese rats): 4.5 ± 0.2 mM | Glucose MCR ([2]; obese rats): 8.3 ± 0.8 ml · min^-1 .multidot | Glucose Ra ([2]; obese rats): 37.5 ± 4.8 μmol^-1 · min .multid | Change in IMGU ([3]; lean Zucker rats): No change | Decrease in whole body glucose disposal ([3]; lean animals, hyperinsulinemic clamp): 16% | Average plasma glucose concentration during final hour of clamp ([3]; lean rats): 5.4 ± 0.1 mM | Average plasma glucose concentration during final hour of clamp ([3]; obese rats): 5.5 ± 0.1 mM | Increase in IMGU compared to vehicle-treated obese animals ([3]; obese rats): more than 6 fold | Increase in rate of whole body glucose uptake compared to untreated obese rats ([3]; obese rats, hyperinsulinemic clamp): 88% | Whole body glucose uptake rate lower than in lean control animals ([3]; treated obese animals versus lean control): approximately 50% | Glucose uptake under hyperinsulinemic conditions in heart ([4]; lean animals): unaffected | Glucose uptake under hyperinsulinemic conditions in liver ([4]; lean animals): unaffected | Decrease in glucose uptake by gastrocnemius ([4]; lean rats): 16% | Decrease in glucose uptake by soleus ([4]; lean rats): 12% | Decrease in glucose uptake by adipose tissue ([4]; lean rats): 48% | Change in glucose uptake in heart ([4]; obese rats): no significant change | Change in glucose uptake in liver ([4]; obese rats): no significant change | Decrease in glucose uptake by adipose tissue ([4]; obese rats): 54% | Increase in glucose uptake in gastrocnemius compared to vehicle-treated obese rats [4, 5]: 44% | Increase in glucose uptake in soleus compared to vehicle-treated obese rats [4, 5]: 47% | Reduction in glucose uptake by fat ([4]; on the basis of intracellular aqueous volume, both groups (lean, obese)): approximately 50% | KD of rat A3 receptor relative to human A3 receptor (rat A3 receptor): much higher
